In patent US20220241314A1, “COMPOSITIONS AND METHODS FOR TREATMENT OF HEPATITIS B VIRUS INFECTION” (priority 2019, published 2022):
{ppp} = triphosphate

B1: poly-U/UC PAMP: ~100 nt PAMP motif from the HCV genome comprising 5′ppp and the poly U/UC region, recognized by RIG-I; formulated in liposome (nucleic acid)
chain: GGCCAUCCUGUUUUUUUCCCUUUUUUUUUUUCUUUUUUUUUUUUUUUUUUUUUUUUUUUUUUUUUUCUCCUUUUUUUUUCCUCUUUUUUUCCUUUUCUUUCCUUU
modifications: RNA, 5' {ppp}, backbone and methylation of C not given here; formulated in liposome
notes: ~100 nt PAMP motif from the HCV genome comprising 5′ppp and the poly U/UC region, recognized by RIG-I; formulated in liposome

Assays:
[1] = system: HBV cccDNA; experiment: HBV cccDNA formation in infected HepG2-hNTCP cells (Hirt extraction, Southern blot, RT-qPCR); assay type: cell-based, HBV (Genotype D); details: harvested 3 dpi; for level of protein free-relaxed circular (PF-RC) DNA, Southern blot / HBV cccDNA formation, Southern blot: HepG2-hNTCP, treated following HBV infection; for HBV cccDNA formation, Southern blot: versus DMSO or X-RNA controls; for IC50 / IC90: HBV 1000 Geq/cell; for IC50: read-out: IC50, decline of cccDNA relative to DMSO treated controls; for IC90: read-out: IC90, decline of cccDNA relative to DMSO treated controls
Protocol: (§1) The scheme illustrates the schedule with HBV inoculum (1000 Geq/cell) and administration of Cyclosporin A (CsA), F7, X-RNA and poly-U/UC PAMP. 2.5% DMSO was added to the medium at 1 day post infection (Dpi). cccDNA and PF RC DNA were harvested from HepG2-hNTCP cells using Hirt extraction method and analyzed by Southern blot analysis using an HBV-specific DNA probe. Viral protein-free DNAs (protein-free Relaxed Circular DNA [PF-RC DNA] and cccDNA) are noted. (2B and 2C) HepG2-hNTCP 2(B) or differentiated HepaRG cells (2C) were infected with HBV at moi of 1000 Geq/cell, and administered CsA (10 μM) or F7, in the indicated concentrations. For upper panels of (2B) and (2C), DNAs were isolated after Hirt extraction at 3 dpi and subjected to Southern blot analysis using as HBV-DNA probe. […] (2D and 2E) HepG2-hNTCP (2D) or dHepaRG cells (2E) were infected with HBV at an moi of 1000 Geq/cell, and administered CsA (10 μM), X-RNA (100 ng/ml), or poly-U/UC PAMP in the indicated concentrations. For upper panels of (2D) and (2E), DNAs were analyzed using Southern blot analysis. For lower panels of (2D) and (2E), DNAs were analyzed by RT-qPCR. IC90, and IC50 values were calculated based on the decline of the cccDNA relative to DMSO treated controls. IC90, and IC50 values are the average of three experiments±one standard deviation. […] Positions of mass markers are indicated on each Southern blot.
To determine how IRF3 activation impacts HBV infection and production of cccDNA in infected cells, HepG2-hNTCP cells were treated with F7 or poly-U/UC PAMP (100 ng/ml [=2.94 nM] or 200 ng/ml [=5.87 nM]) following HBV infection. Cyclosporin A (CsA) treatment was employed as an HBV entry inhibitor antiviral control (Watashi, K., et al. (2014). Cyclosporin A and its analogs inhibit hepatitis B virus entry into cultured hepatocytes through targeting a membrane transporter, sodium taurocholate cotransporting polypeptide (NTCP). Hepatology (Baltimore, Md.) 59, 1726-1737). Cells were harvested 3 days post-infection (dpi) and extracts were prepared using Hirt extraction methods for isolating protein-free DNA, as shown in FIG. 2A (Guo, H., et al. (2007). Characterization of the Intracellular Deproteinized Relaxed Circular DNA of Hepatitis B Virus: an Intermediate of Covalendy Closed Circular DNA Formation. Journal of Virology 81, 12472-12484 Hirt, B. (1967). Selective extraction of polyoma DNA from infected mouse cell cultures. Journal of molecular biology 26, 365-369).
(§2) HBV infection HBV (Genotype D) was purified from the supernatant of HepAD38 cells by PEG concentration and subsequent sucrose gradient, as described previously (Ko, C., et al. (2014). DDX3 DEAD-Box RNA Helicase Is a Host Factor That Restricts Hepatitis B Virus Replication at the Transcriptional Level. Journal of Virology 88, 13689-13698; Watashi, K., et al. (2013), supra). For HBV infection cells were seeded into collagen-coated plates. One day later, the cells were infected with HBV in DMEM containing 4% polyethylene glycol 8000 (PEG-8000). The multiplicities of infection (expressed as virus genome equivalent/cell) are indicated in each Figure Legend. The inocula were removed 24 hours later, and the infected cultures were maintained in complete DMEM containing 2.5% DMSO until harvesting, as described previously (Ni, Y., et al. (2014). Hepatitis B and D viruses exploit sodium taurocholate co-transporting polypeptide for species-specific entry into hepatocytes. Gastroenterology 146, 1070-1083).
(§3) Reverse transcription quantitative real time qPCR (RT-qPCR) analysis: Total cellular RNAs were extracted from cells using TRIZOL reagent and the manufacturers protocol (Invitrogen). cDNA was synthesized from the purified RNA by both random and oligo (dT) priming using iScript select cDNA synthesis kit (Biorad, Inc.). For HBV cccDNA expression analysis, total DNA was extracted using the DNeasy kit (QIAGEN).

[2] = system: HBV cccDNA; experiment: HBV cccDNA formation in infected differentiated HepaRG cells (Southern blot, RT-qPCR); assay type: cell-based, HBV (Genotype D); details: HBV 1000 Geq/cell, harvested 3 dpi; for IC50: read-out: IC50, decline of cccDNA relative to DMSO treated controls; for IC90: read-out: IC90, decline of cccDNA relative to DMSO treated controls
Protocol: as §1, §2
as §3, with “For HBV cccDNA expression analysis, total DNA was extracted using the DNeasy kit (QIAGEN).” left out

[3] = Hepatitis B virus, HepG2-hNTCP cells
[4] = Hepatitis B virus, differentiated HepaRG cells

Molecule	level of protein free-relaxed circular (PF-RC) DNA, Southern blot [1]	HBV cccDNA formation, Southern blot [1]	IC50 [1, 3] [nM]	IC90 [1, 3] [nM]	IC50 [2, 4] [nM]	IC90 [2, 4] [nM]	IC50 ([1]; HepG2-NTCP cells) [nM]	IC90 ([1]; HepG2-NTCP cells) [nM]	IC50 ([2]; dHepaRG cells) [nM]	IC90 ([2]; dHepaRG cells) [nM]
O=C(Nc1ccc2nc(NC(=O)c3ccc4ccccc4c3)sc2c1)c1ccccc1 [F7, N-(6-benzamido-1,3-benzothiazol-2-yl)naphthalene-2-carboxamide]	markedly decreased	suppressed HBV cccDNA formation	~8480	~17400	~3380	~12800				
B1	markedly decreased	suppressed HBV cccDNA formation					~1.94	~12	~1.61	~3.3
